# Assay results as given in patent US20070117858A1, “SUBSTITUTED 5-HETEROARYL-1-PHENYL-PYRAZOLE CANNABINOID MODULATORS” (priority 2005, published 2007).
# Experiments:
# [1] = biological target: T1, human CB1 receptor (Homo sapiens, UniProt P21554); assay: Cannabinoid CB1 receptor binding assay ([3H]-CP-55,940 displacement, SK-N-MC cell membranes); conditions: for inhibition at 0.2 µM: 1.5 h, read-out: Cannabinoid CB1 Receptor Binding, percent inhibition
# T1 construct: expressed in transfected cells; host or cells: SK-N-MC cells, stably transfected with pcDNA3 CB-1 (human); semi-purified membrane pellet
# T1 sequence (P21554 whole entry): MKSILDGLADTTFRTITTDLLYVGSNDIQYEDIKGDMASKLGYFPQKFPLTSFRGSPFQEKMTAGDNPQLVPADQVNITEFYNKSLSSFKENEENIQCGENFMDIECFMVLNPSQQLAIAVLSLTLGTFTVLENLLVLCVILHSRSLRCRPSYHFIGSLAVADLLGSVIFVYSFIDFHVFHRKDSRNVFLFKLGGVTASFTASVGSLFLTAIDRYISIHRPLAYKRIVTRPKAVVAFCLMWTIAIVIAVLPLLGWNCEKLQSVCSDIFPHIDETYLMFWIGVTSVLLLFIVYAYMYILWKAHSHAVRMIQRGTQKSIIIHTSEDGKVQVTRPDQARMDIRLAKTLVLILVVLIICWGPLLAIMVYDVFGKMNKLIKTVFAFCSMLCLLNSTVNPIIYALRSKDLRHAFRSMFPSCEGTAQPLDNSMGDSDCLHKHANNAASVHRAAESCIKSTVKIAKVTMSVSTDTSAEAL
# Procedure: (§1) Binding Assay for CB1 or CB2 Agonists or Inverse Agonists
# (§2) The human CB1 and CB2 receptors were stably expressed in SK-N-MC cells transfected with pcDNA3 CB-1 (human) or pcDNA3 CB-2 (human). The cells were grown in T-180 cell culture flasks under standard cell culture conditions at 37° C. in a 5% CO2 atmosphere. The cells were harvested by trysinization and homogenized in a homogenization buffer (10 mM Tris, 0.2 mM MgCl2, 5 mM KCl, with protease inhibitors aprotinin, leupeptin, pepstatin A and bacitracin) and centrifuged (2000 g). The supernatant was then centrifuged in 2M sucrose (31,300 g) to produce a semi-purified membrane pellet. The pellet was resuspended in homogenization and stored at −80° C.
# (§3) On the day of the assay, the pellet was thawed on ice and diluted in assay buffer (50 mM Tris-HCl, 5 mM MgCl2, 2.5 mM EDTA, 0.5 mg/mL fatty acid free bovine serum albumin, pH 7.5). The diluted membrane pellet was added with buffer, either a test compound or vehicle standard and the radioligand […] (0.2 nM) to the wells of a 96-well polypropylene plate. Non-specific binding was measured in wells containing W1N 55,212 (10 uM). The plate was covered and incubated for 90 minutes at 30° C. The contents were then aspirated onto a Packard Unifilter GF/C filter bottom plate prewet with 0.5% polyethyleneimine. The wells of the polypropylene plate were rinsed and aspirated seven times with a 0.9% saline-0.5% Tween 20 solution. The Unifilter plate was dried, scintillation cocktail was added to each well and the counts representing binding were quantitated in a TopCount scintillation counter.
# (§4) For compounds tested, an IC50 binding value was obtained from percent inhibition studies in which various test concentrations were used. The binding value was calculated by linear regression.
# (§5) For compounds without an IC50 binding value, the percent inhibition (%) was obtained at a test concentration of 0.2 μM.
# [2] = biological target: T2, human CB2 receptor (Homo sapiens, UniProt P34972); assay: Cannabinoid CB2 receptor binding assay ([3H]-CP-55,940 displacement, SK-N-MC cell membranes); conditions: 1.5 h; test concentration of 0.2 μM; radioligand CP-55,940 0.2 nM; read-out: Cannabinoid CB2 Receptor Binding, percent inhibition
# T2 construct: expressed in transfected cells; host or cells: SK-N-MC cells, stably transfected with pcDNA3 CB-2 (human); semi-purified membrane pellet
# T2 sequence (P34972 whole entry): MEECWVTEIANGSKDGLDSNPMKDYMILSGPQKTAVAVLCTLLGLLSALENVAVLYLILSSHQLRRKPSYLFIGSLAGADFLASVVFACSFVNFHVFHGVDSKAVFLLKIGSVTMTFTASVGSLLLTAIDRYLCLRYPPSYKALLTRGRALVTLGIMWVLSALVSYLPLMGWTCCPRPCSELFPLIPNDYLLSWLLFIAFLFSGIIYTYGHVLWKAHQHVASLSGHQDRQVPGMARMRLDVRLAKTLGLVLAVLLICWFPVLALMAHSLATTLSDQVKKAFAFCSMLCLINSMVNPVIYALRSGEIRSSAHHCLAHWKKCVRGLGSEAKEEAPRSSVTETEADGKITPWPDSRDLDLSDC
# Procedure: as §1, §2, §3, §4, §5
Structure (SMILES),inhibition at 0.2 µM [1] [%],inhibition at 0.2 µM [2] [%],IC50 [1] [µM]
"C[C@H](NC(=O)c1nn(-c2ccc(Cl)cc2Cl)c(-c2cccs2)c1C#N)c1ccccc1 [Cpd 19, 4-cyano-1-(2,4-dichloro-phenyl)-5-thiophen-2-yl-1H-pyrazole-3-carboxylic acid [(1S)-1-phenyl-ethyl]-amide]",45,24,–
"N#Cc1c(C(=O)NN2CCCCC2)nn(-c2ccc(Cl)cc2Cl)c1-c1cccs1 [Cpd 20, 4-cyano-1-(2,4-dichloro-phenyl)-5-thiophen-2-yl-1H-pyrazole-3-carboxylic acid piperidin-1-ylamide]",37,9,–
"N#Cc1c(C(=O)N2CCCCC2)nn(-c2ccc(Cl)cc2Cl)c1-c1cccs1 [Cpd 21, 1-(2,4-dichloro-phenyl)-3-(piperidine-1-carbonyl)-5-thiophen-2-yl-1H-pyrazole-4-carbonitrile]",12,3,–
"Cc1c(C(=O)NN2CCCCC2)nn(-c2ccc(Cl)cc2Cl)c1-c1ccc(Br)s1 [Cpd 22, 5-(5-bromo-thiophen-2-yl)-1-(2,4-dichloro-phenyl)-4-methyl-1H-pyrazole-3-carboxylic acid piperidin-1-ylamide]",–,42,0.037
"N#Cc1c(C(=O)NN2CCCCC2)nn(-c2ccc(Cl)cc2Cl)c1-c1ccc(Cl)s1 [Cpd 23, 5-(5-chloro-thiophen-2-yl)-4-cyano-1-(2,4-dichloro-phenyl)-1H-pyrazole-3-carboxylic acid piperidin-1-ylamide]",–,22,0.071
"C[C@@H](NC(=O)c1nn(-c2ccc(Cl)cc2Cl)c(-c2ccc(Cl)s2)c1C#N)C1CCCCC1 [Cpd 24, 5-(5-chloro-thiophen-2-yl)-4-cyano-1-(2,4-dichloro-phenyl)-1H-pyrazole-3-carboxylic acid [(1R)-1-cyclohexyl-ethyl]-amide]",–,13,0.015
"C[C@@H](NC(=O)c1nn(-c2ccc(Cl)cc2Cl)c(-c2ccc(Cl)s2)c1C#N)c1ccccc1 [Cpd 25, 5-(5-chloro-thiophen-2-yl)-4-cyano-1-(2,4-dichloro-phenyl)-1H-pyrazole-3-carboxylic acid [(1R)-1-phenyl-ethyl]-amide]",–,13,0.016
"C[C@H](NC(=O)c1nn(-c2ccc(Cl)cc2Cl)c(-c2ccc(Cl)s2)c1C#N)c1ccccc1 [Cpd 26, 5-(5-chloro-thiophen-2-yl)-4-cyano-1-(2,4-dichloro-phenyl)-1H-pyrazole-3-carboxylic acid [(1S)-1-phenyl-ethyl]-amide]",–,16,0.11
"C[C@@H](NC(=O)c1nn(-c2ccc(Cl)cc2Cl)c(-c2ccc(Cl)s2)c1C#N)c1ccccn1 [Cpd 27, 5-(5-chloro-thiophen-2-yl)-4-cyano-1-(2,4-dichloro-phenyl)-1H-pyrazole-3-carboxylic acid [(1R)-1-pyridin-2-yl-ethyl]-amide]",69,12,–
"Cc1c(C(=O)NN2CCCCC2)nn(-c2ccc(Cl)cc2Cl)c1-c1ccc(F)s1 [Cpd 28, 1-(2,4-dichloro-phenyl)-5-(5-fluoro-thiophen-2-yl)-4-methyl-1H-pyrazole-3-carboxylic acid piperidin-1-ylamide]",69,20,–
"Cc1c(C(=O)NN2CCCCC2)nn(-c2ccc(Cl)cc2Cl)c1-c1ccc(I)s1 [Cpd 29, 1-(2,4-dichloro-phenyl)-5-(5-iodo-thiophen-2-yl)-4-methyl-1H-pyrazole-3-carboxylic acid piperidin-1-ylamide]",–,55,0.017
"Cc1c(C(=O)NN2CCCCC2=O)nn(-c2ccc(Cl)cc2Cl)c1-c1ccc(Cl)s1 [Cpd 30, 5-(5-chloro-thiophen-2-yl)-1-(2,4-dichloro-phenyl)-4-methyl-1H-pyrazole-3-carboxylic acid (2-oxo-piperidin-1-yl)-amide]",17,15,–
"Cc1c(C(=O)N[C@@H](C)c2ccccc2)nn(-c2ccc(Cl)cc2Cl)c1-c1ccc(F)s1 [Cpd 31, 1-(2,4-dichloro-phenyl)-5-(5-fluoro-thiophen-2-yl)-4-methyl-1H-pyrazole-3-carboxylic acid [(1S)-1-phenyl-ethyl]-amide]",64,39,–
"Cc1c(C(=O)N[C@H](C)c2ccccc2)nn(-c2ccc(Cl)cc2Cl)c1-c1ccc(F)s1 [Cpd 32, 1-(2,4-dichloro-phenyl)-5-(5-fluoro-thiophen-2-yl)-4-methyl-1H-pyrazole-3-carboxylic acid [(1R)-1-phenyl-ethyl]-amide]",–,55,0.046
"Cc1c(C(=O)N[C@@H](C)C2CCCCC2)nn(-c2ccc(Cl)cc2Cl)c1-c1ccc(F)s1 [Cpd 33, 1-(2,4-dichloro-phenyl)-5-(5-fluoro-thiophen-2-yl)-4-methyl-1H-pyrazole-3-carboxylic acid [(1S)-1-cyclohexyl-ethyl]-amide]",73,41,–
"Cc1c(C(=O)N[C@@H](C)c2ccccn2)nn(-c2ccc(Cl)cc2Cl)c1-c1ccc(F)s1 [Cpd 34, 1-(2,4-dichloro-phenyl)-5-(5-fluoro-thiophen-2-yl)-4-methyl-1H-pyrazole-3-carboxylic acid [(1S)-1-pyridin-2-yl-ethyl]-amide]",61,34,–
"CCc1c(C(=O)NN2CCCCC2)nn(-c2ccc(Cl)cc2Cl)c1-c1ccc(Br)s1 [Cpd 35, 5-(5-bromo-thiophen-2-yl)-1-(2,4-dichloro-phenyl)-4-ethyl-1H-pyrazole-3-carboxylic acid piperidin-1-ylamide]",–,29,0.013
"CCc1c(C(=O)N[C@H](C)c2ccccc2)nn(-c2ccc(Cl)cc2Cl)c1-c1ccc(Br)s1 [Cpd 40, 5-(5-bromo-thiophen-2-yl)-1-(2,4-dichloro-phenyl)-4-ethyl-1H-pyrazole-3-carboxylic acid [(1R)-1-phenyl-ethyl]-amide]",78,52,–
"CCc1c(C(=O)N[C@@H](C)c2ccccn2)nn(-c2ccc(Cl)cc2Cl)c1-c1ccc(Br)s1 [Cpd 41, 5-(5-bromo-thiophen-2-yl)-1-(2,4-dichloro-phenyl)-4-ethyl-1H-pyrazole-3-carboxylic acid [(1S)-1-pyridin-2-yl-ethyl]-amide]",–,45,0.015
"CCc1c(C(=O)N[C@@H](C)c2ccccc2)nn(-c2ccc(Cl)cc2Cl)c1-c1ccc(Br)s1 [Cpd 42, 5-(5-bromo-thiophen-2-yl)-1-(2,4-dichloro-phenyl)-4-ethyl-1H-pyrazole-3-carboxylic acid [(1S)-1-phenyl-ethyl]-amide]",–,38,0.011
"CCc1c(C(=O)N[C@@H](C)C2CCCCC2)nn(-c2ccc(Cl)cc2Cl)c1-c1ccc(Br)s1 [Cpd 43, 5-(5-bromo-thiophen-2-yl)-1-(2,4-dichloro-phenyl)-4-ethyl-1H-pyrazole-3-carboxylic acid [(1S)-1-cyclohexyl-ethyl]-amide]",–,39,0.008
"Cc1c(C(=O)NN2CCCCC2)nn(-c2ccc(Cl)cc2Cl)c1-c1cc(Br)cs1 [Cpd 44, 5-(4-bromo-thiophen-2-yl)-1-(2,4-dichloro-phenyl)-4-methyl-1H-pyrazole-3-carboxylic acid piperidin-1-ylamide]",74,53,–
"Cc1c(C(=O)N2CCCCC2)nn(-c2ccc(Cl)cc2Cl)c1-c1cc(Br)cs1 [Cpd 45, [5-(4-bromo-thiophen-2-yl)-1-(2,4-dichloro-phenyl)-4-methyl-1H-pyrazol-3-yl]-piperidin-1-yl-methanone]",33,12,–
"Cc1c(C(=O)N[C@@H](C)c2ccccc2)nn(-c2ccc(Cl)cc2Cl)c1-c1cc(Br)cs1 [Cpd 46, 5-(4-bromo-thiophen-2-yl)-1-(2,4-dichloro-phenyl)-4-methyl-1H-pyrazole-3-carboxylic acid [(1S)-1-phenyl-ethyl]-amide]",52,47,–
"Cc1c(C(=O)N[C@@H](C)c2ccccn2)nn(-c2ccc(Cl)cc2Cl)c1-c1cc(Br)cs1 [Cpd 47, 5-(4-bromo-thiophen-2-yl)-1-(2,4-dichloro-phenyl)-4-methyl-1H-pyrazole-3-carboxylic acid [(1S)-1-pyridin-2-yl-ethyl]-amide]",56,46,–
